Reference: patent US5135849A, “In-vitro methods for identifying compositions which are agonists and antagonists of androgens” (priority 1989, dated 1992)
Read-outs that look alike come from different tables or passages of the source.

Key:
LNCaP cells [1] = test: Phase 1 protocol to identify androgen agonist properties (LNCaP cell proliferation in CDHS medium); assay type: cell-based, human; details: for agonistic / proliferative activity, in words: Phase 1 protocol, CDHS-supplemented media; for CHARACTERISTICS: classification from Phase 1 and Phase 2 protocols; for PHASE 1 CELL COUNT: final cell number per well at the optimal test conc.; for PHASE 1 CELL COUNT / cell yields compared with DHT alone, in words / OPTIMAL TEST CONC. (Phase 1): 10% CDHS; for cell yields compared with DHT alone, in words: 3×10^-8 M; for RELATIVE PROLIFERATIVE POTENCY: Table II, 5α-DHT = 1.0, 5 × 10^4 cell inoculum grown in CDHS for 8 days
From the text: This protocol measures the potential agonistic properties of the substance under test. All manipulations are to be carried out under sterile conditions using disposable plastic tissue culture multiwell plates with all manipulations preferrably being performed in a tissue culture hood.
1. The cell line of choice is the LNCaP-FGC cell culture, an androgen-sensitive prostate tumor cell line. The LNaP cell line is routinely grown in 5% fetal bovine serum--supplemented Dulbecco's modified Eagle minimal essential medium (hereinafter "5% FBS/DME"), at 37° C. in a 95% air--5% CO2 atmosphere.
2. The cultured cells growing in 5% FBS/DME are harvested by treatment with trypsin (1:250)--EDTA (0.2%). The cells are detached by brief exposure to trypsin for about two minutes. To avoid excessive proteolysis, the reaction is quenched by addition of equal volumes of 5% FBS/DME. The resulting cell suspension is collected into a sterile centrifuge tube and resuspended by pipetting gently. The aliquots of this cell suspension thus obtained are dispersed by means of a Skatron dispenser into individual wells containing the seedling medium (1 ml of 5% FBS/DME per well) of a multiwell plate. Each final prepared suspension preferably contains 50,000 cells in a volume of 1.0 ml. It is desirable that the number of cells be counted and verified by means of a Coulter Counter (Coulter Electronics, Hialeah, FL).
The number of wells in each plate will correspond to the number of concentrations per test substances to be evaluated and thus is merely a question of choice or convenience to the user. Into each well, 25 microliter (hereinafter "ul") aliquots of the prepared cell suspension are added using a 1.0 ml syringe fitted with a 19 gauge needle attached to a repetitive Dunn pipetter (Skatron Dispenser). The microtiter plate is then gently shaken to avoid unequal cell distribution within each individual well. The seeded cells are then allowed to attach to the plastic surface of the well proper over a period of 24-72 hours' duration after which the fluid is changed to the experimental maintaining medium.
3 At the time of test, all the seeded cells in each well of the multiwell plate receive 10% heat inactivated--charcoal-dextran human stripped serum (CDHS) in DME at a volume of 0.9 ml per well. Although higher concentrations of CDHS may be utilized up to and including 40% concentrations, the 10% concentration is most preferred.
5. To the other prepared (seeded) wells, 100 ul of the test substance to be evaluated is added as a 10X stock solution to achieve final concentrations ranging from 10^-5 M to at least 10^-12 M. The substance under test is preferably prepared as a stock solution in ethanol, most preferrably as a 10^-3 M solution. All dilutions from the stock preparation are made using DME. The ethanol concentration in the culture medium should be kept below […] by volume. This preparative technique and precaution avoids the need to filter the various volumes of test substance to achieve sterility. This is particularly valuable because steroidal compositions are known to become adsorbed to the commercially obtained filter membranes used for sterilization. The addition of the test substance in appropriate concentrations to the cultured cells and the maintaining medium forms a series of individual reaction mixtures, each of which is varied only by the concentration of the test substance present in the well.
6. After the series of individual reaction mixtures are formed, all of the cultured cells under test in each well of the microtiter plate are incubated at 37° C. preferably in an atmosphere of 5% CO2 /95% air under saturating humidity. During this incubation time, it is desired and preferred that the cultured cells employed in the test be maintained in an atmosphere most advantageous for survival and growth of that cell line. The incubation period preferably is in the range of from 5 to 7 days' duration.

[2] = tested on: 3H-E2 binding in LNCaP cells; test: Competition with 3H-E2 binding in LNCaP cells; set-up: species or system human
Procedure: (§1) Steroid receptors measurement: The presence of intracellular sex steroid binding proteins was investigated in whole cell extracts as well as in intact cells. Cytosolic and nuclear extracts were obtained after centrifugation (105,000 g, 45 min.) of a sonicated cellular suspension in TKE buffer (10 mM Tris, 500 mM KCl, 0.5 mM EDTA, pH 7.4). Aliquots of this extract were incubated for 18 hours at 4° C. with increasing concentrations (2×10^- M to 2×10^-8 M) of labelled steroids, with and without a 200-fold excess of the corresponding unlabelled steroid. Bound and free fractions were separated by dextran-coated charcoal adsorption. Intact cells grown in monolayer culture were assayed for specific steroid binding [Olea-Serrano et al., Eur. J. Cancer Clin. Oncol. 21:965-973 (1983)]. Briefly, the cells were incubated in 12-well plates during 50 minutes at 37° C. in DME containing the labelled steroid with and without excess of cold competitor. The range of concentrations used was the same as that in the cytosolic-nuclear extract assay. […] The intracellular radioactivity was extracted with ethanol after ice-cold PBS washing. In both types of experiments, Scatchard analysis of the saturation data was used to quantify the maximal binding capacity (Bmax) and the affinity parameters (dissociation constant, Kd) using the SCAFIT program [Munson et al., Anal. Biochem. 107:220-239 (1980)].

androgen receptor = target: T1, androgen receptor (Homo sapiens, UniProt P10275, T878A); test: Competition for androgen receptors with 3H-testosterone in LNCaP cytosol-nuclear extracts (RBA); assay type: binding; details: for RBA (relative binding affinity to the androgen receptor): Table II, 5α-DHT = 100, 6×10^-9 M 3H-testosterone
T1 construct: the presence of specific androgen receptors in LNCaP cells; endogenous in cells; extract or intact cells for the saturation analysis
T1 sequence (P10275 whole entry T878A): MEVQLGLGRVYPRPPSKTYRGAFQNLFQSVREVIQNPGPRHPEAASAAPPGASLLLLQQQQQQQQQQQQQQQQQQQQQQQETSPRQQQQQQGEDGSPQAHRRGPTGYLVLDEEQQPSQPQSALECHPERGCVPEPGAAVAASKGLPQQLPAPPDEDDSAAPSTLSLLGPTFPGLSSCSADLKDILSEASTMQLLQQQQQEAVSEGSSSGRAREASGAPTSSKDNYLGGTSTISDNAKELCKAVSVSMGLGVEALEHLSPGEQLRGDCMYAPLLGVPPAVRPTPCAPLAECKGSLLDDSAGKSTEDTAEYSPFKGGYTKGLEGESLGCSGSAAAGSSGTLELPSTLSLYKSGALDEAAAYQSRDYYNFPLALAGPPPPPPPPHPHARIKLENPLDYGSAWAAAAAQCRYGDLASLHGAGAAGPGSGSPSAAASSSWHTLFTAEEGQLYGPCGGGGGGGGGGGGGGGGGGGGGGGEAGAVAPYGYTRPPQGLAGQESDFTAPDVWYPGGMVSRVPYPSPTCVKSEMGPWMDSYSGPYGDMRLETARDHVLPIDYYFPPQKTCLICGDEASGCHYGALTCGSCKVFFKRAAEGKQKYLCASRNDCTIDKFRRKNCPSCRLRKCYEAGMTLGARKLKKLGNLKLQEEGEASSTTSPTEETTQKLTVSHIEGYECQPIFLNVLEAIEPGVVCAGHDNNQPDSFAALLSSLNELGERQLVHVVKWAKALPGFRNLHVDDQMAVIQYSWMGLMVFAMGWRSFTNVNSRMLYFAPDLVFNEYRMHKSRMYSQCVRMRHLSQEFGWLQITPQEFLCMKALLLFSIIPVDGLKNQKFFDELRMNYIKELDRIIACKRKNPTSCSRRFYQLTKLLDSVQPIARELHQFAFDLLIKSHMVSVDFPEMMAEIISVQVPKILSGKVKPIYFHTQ
Procedure: as §1
Cytosol-nuclear extracts were used to study competition for androgen receptors. […] The relative binding affinity (RBA) was calculated from the equation: […]

LNCaP cells [3] = test: Phase 2 protocol for androgen antagonistic properties (LNCaP proliferation with 3×10^-10 M 5α-DHT plus test substance); details: for antagonistic activity, in words: Phase 2 protocol
[4] = with 3×10^-10 M 5α-DHT, 10% CDHS

CC/C(=C(/CC)c1ccc(O)cc1)c1ccc(O)cc1 [DES, diethylstilbestrol]
agonistic / proliferative activity, in words (LNCaP cells [1]): no agonistic activity at all
CHARACTERISTICS (LNCaP cells [1]): full antagonist
PHASE 1 CELL COUNT (LNCaP cells [1]): 5 × 10^4
competition with 3H-E2 binding, in words [2]: did not compete

C[C@]12CCC(=O)C=C1CC[C@@H]1[C@@H]2[C@@H](O)C[C@@]2(C)[C@H]1CC[C@]2(O)C(=O)CO [hydrocortisone]
CHARACTERISTICS (LNCaP cells [1]): quiescent
PHASE 1 CELL COUNT (LNCaP cells [1]): 5 × 10^4

CC(C)(O)C(=O)Nc1ccc([N+](=O)[O-])c(C(F)(F)F)c1 [hydroxyflutamide]
cell yields compared with DHT alone, in words (LNCaP cells [1]): increased cell yields at values consistently above those obtained with DHT alone
RPP (relative proliferation potency) (LNCaP cells [1]; Table III, Testosterone = 1, 10^5 cell inoculum grown in CDHS for 7 days): 0.01
CHARACTERISTICS (LNCaP cells [1]): full agonist
PHASE 1 CELL COUNT (LNCaP cells [1]): 3.9 × 10^5
RBA (relative binding affinity to the androgen receptor extracted from LNCaP) (androgen receptor; Table III, Testosterone = 1): 0.004
antagonistic activity, in words (LNCaP cells [3]): absence of antagonistic effects

CC(=O)O[C@]1(C(C)=O)CC[C@H]2[C@@H]3C=C(Cl)C4=CC(=O)[C@@H]5C[C@@H]5[C@]4(C)[C@H]3CC[C@@]21C [cyproterone acetate]
cell yields compared with DHT alone, in words (LNCaP cells [1]): increased cell yields at values consistently above those obtained with DHT alone
CHARACTERISTICS (LNCaP cells [1]): full agonist
PHASE 1 CELL COUNT (LNCaP cells [1]): 4.1 × 10^5

CCC(=O)C1(C)CCC2C3CCC4=CC(=O)CCC4=C3CCC21C (stereo not drawn) [R5020, 17βmethyl-,21-methyl-19-nor-pregna-4,9-diene-3,10-dione]
agonistic / proliferative activity, in words (LNCaP cells [1]): effective and potent androgen agonists
RELATIVE PROLIFERATIVE POTENCY (LNCaP cells [1]): 0.01
CHARACTERISTICS (LNCaP cells [1]): full agonists
PHASE 1 CELL COUNT (LNCaP cells [1]): 4.0 × 10^5
RBA (relative binding affinity to the androgen receptor) (androgen receptor): 11
antagonistic activity, in words (LNCaP cells [3]): no antagonistic activity

C[C@]12CC[C@H]3[C@@H](CCC4=CC(=O)CC[C@@]43C)[C@@H]1CC[C@@H]2O [testosterone]
agonistic / proliferative activity, in words (LNCaP cells [1]): proliferative pattern similar to that obtained with 5α-DHT
CHARACTERISTICS (LNCaP cells [1]): full agonist
PHASE 1 CELL COUNT (LNCaP cells [1]): 2.6 × 10^5

C[C@]12CC[C@@H](O)C[C@@H]1CC[C@@H]1[C@@H]2CC[C@]2(C)[C@@H](O)CC[C@@H]12 [3α-diol, 5α-androstene, 3α,17β-diol]
CHARACTERISTICS (LNCaP cells [1]): full agonist
PHASE 1 CELL COUNT (LNCaP cells [1]): 2.5 × 10^5

CC(=O)[C@H]1CC[C@H]2[C@@H]3CCC4=CC(=O)CC[C@]4(C)[C@H]3CC[C@]12C [progesterone]
agonistic / proliferative activity, in words (LNCaP cells [1]): effective and potent androgen agonists
CHARACTERISTICS (LNCaP cells [1]): full agonists
PHASE 1 CELL COUNT (LNCaP cells [1]): 4 × 10^5
antagonistic activity, in words (LNCaP cells [3]): no antagonistic activity

insulin: Insulin (Eli Lilly Company)
OPTIMAL TEST CONC. (Phase 1) (LNCaP cells [1]): 100 ng/mL
CHARACTERISTICS (LNCaP cells [1]): quiescent
PHASE 1 CELL COUNT (LNCaP cells [1]): 5 × 10^4
OPTIMAL TEST CONC. (Phase II) (LNCaP cells [3]; [4]): 100 ng/mL

CC(=O)O[C@]1(C(C)=O)CC[C@H]2[C@@H]3C[C@H](C)C4=CC(=O)CC[C@]4(C)[C@H]3CC[C@@]21C [medroxy progesterone, medroxyprogesterone acetate]
CHARACTERISTICS (LNCaP cells [1]): full agonist
PHASE 1 CELL COUNT (LNCaP cells [1]): 4.0 × 10^5
OPTIMAL TEST CONC. (Phase II) (LNCaP cells [3]): 3 µM
PHASE II CELL COUNT (LNCaP cells [3]): 4.0 × 10^5
antagonistic activity, in words (LNCaP cells [3]): absence of antagonistic effects

epidermal growth factor: Epidermal Growth Factor (Collaborative Research; Creative Biomolecules) (NSDSECPLSHDGYCLHDGVCMYIEALDKYACNCVVGYIGERCQYRDLKWWELR; Epidermal growth factor; UniProt P01133 971-1023, looked up)
OPTIMAL TEST CONC. (Phase 1) (LNCaP cells [1]): 100 ng/mL
CHARACTERISTICS (LNCaP cells [1]): quiescent
OPTIMAL TEST CONC. (Phase II) (LNCaP cells [3]; [4]): 100 ng/mL

C[C@]12CCC(=O)C[C@@H]1CC[C@@H]1[C@@H]2CC[C@]2(C)[C@@H](O)CC[C@@H]12 [5α-DHT, 5α-dihydrotestosterone]
CHARACTERISTICS (LNCaP cells [1]): full agonist
PHASE 1 CELL COUNT (LNCaP cells [1]): 2.5 × 10^5

C[C@@H]1CC2=CC(=O)CC[C@@H]2[C@H]2CC[C@@]3(C)[C@@H](CC[C@]3(C)O)[C@@H]21 [mibolerone, 7α,17α-dimethyl-19-nortestosterone]
CHARACTERISTICS (LNCaP cells [1]): full agonist
PHASE 1 CELL COUNT (LNCaP cells [1]): 2.5 × 10^5

C[C@]12CCC(=O)C[C@H]1CC[C@@H]1[C@@H]2CC[C@]2(C)[C@@H](O)CC[C@@H]12 [5β-DHT, 5β-dihydrotestosterone]
CHARACTERISTICS (LNCaP cells [1]): full agonist
PHASE 1 CELL COUNT (LNCaP cells [1]): 2.5 × 10^5

CC(=O)[C@H]1CC[C@H]2[C@@H]3CC=C4C[C@@H](O)CC[C@]4(C)[C@H]3CC[C@]12C [pregnenolone]
CHARACTERISTICS (LNCaP cells [1]): full agonist
proliferative potency (LNCaP cells [1]; compared with 5α-DHT values): 1%
PHASE 1 CELL COUNT (LNCaP cells [1]): 3.9 × 10^5

CC1(C)NC(=O)N(c2ccc([N+](=O)[O-])c(C(F)(F)F)c2)C1=O [anandron, 5,5-dimethyl-3-(4-nitro-3-(trifluoromethyl)-phenyl)-2,4-imidasolidinedione]
cell yields compared with DHT alone, in words (LNCaP cells [1]): increased cell yields at values consistently above those obtained with DHT alone
CHARACTERISTICS (LNCaP cells [1]): full agonist
PHASE 1 CELL COUNT (LNCaP cells [1]): 4.0 × 10^5

C[C@]1(O)CC[C@H]2[C@@H]3CCC4=CC(=O)CCC4=C3C=C[C@@]21C [R1881, 17β-hydroxy-17α-methyl-estra-4,9,11-trien-3-one]
CHARACTERISTICS (LNCaP cells [1]): full agonists
PHASE 1 CELL COUNT (LNCaP cells [1]): 2.5 × 10^5
antagonistic activity, in words (LNCaP cells [3]): no antagonistic activity

C[C@]12CC[C@@H]3c4ccc(O)cc4CC[C@H]3[C@@H]1CCC2=O [Estrone, estrone]
RBA (relative binding affinity to the androgen receptor) (androgen receptor): 0.1

CC(C)C(=O)Nc1ccc([N+](=O)[O-])c(C(F)(F)F)c1 [flutamide]
agonistic / proliferative activity, in words (LNCaP cells [1]): devoid of activity
CHARACTERISTICS (LNCaP cells [1]): quiescent
PHASE 1 CELL COUNT (LNCaP cells [1]): 5 × 10^4

C[C@]12C[C@H](CCl)[C@@H]3c4ccc(O)cc4CC[C@H]3[C@@H]1CC[C@@H]2O [Org 4333, 11β-chloromethyl estradiol]
RELATIVE PROLIFERATIVE POTENCY (LNCaP cells [1]): 0.01
CHARACTERISTICS (LNCaP cells [1]): full agonists
PHASE 1 CELL COUNT (LNCaP cells [1]): 4.0 × 10^5
RBA (relative binding affinity to the androgen receptor) (androgen receptor): 1.2
antagonistic activity, in words (LNCaP cells [3]): no antagonistic activity
